Experimental data from patent US20100240683A1, “COMBINATION THERAPY, COMPOSITION AND METHODS FOR THE TREATMENT OF CARDIOVASCULAR DISORDERS” (Syndromex Ltd., priority 2007, published 2010).

Legend:
Format in all cases: in vivo, human
[1] = tested on: dyslipidemic non-diabetic patients; test: Hypolipidemic effect of M16ββ in dyslipidemic non-diabetic patients; details: p.o. 200 mg/day to 800 mg/day
Description: Eight dyslipidemic non-diabetic patients were subjected to 4-5 weeks maintenance period on placebo followed by a period of 3-5 months of treatment p.o. with increasing M16ββ doses ranging from 200 mg/day to 800 mg/day.

[2] = tested on: healthy male volunteers; test: Evaluation of safety clinical and laboratory parameters in healthy male volunteers; details: 1 to 4 weeks, varying doses, during treatment and one month after
Description: Fifteen healthy male volunteers aged 25-52 were treated for periods ranging from 1 to 4 weeks with varying doses of M16ββ.

[3] = tested on: obese dyslipidemic, insulin resistant non-diabetic patients; test: Sensitization to insulin in obese dyslipidemic, insulin resistant non-diabetic patients
Description: Five obese dyslipidemic, insulin resistant non-diabetic patients were subjected to 4 weeks maintenance period on placebo followed by treatment p.o. with increasing daily doses ranging from 30-600 mg M16ββ per dose for a period of 4 weeks.

[4] = p.o. 30-600 mg per dose daily, 4 weeks

Compound: CC(C)(CCCCCCCCCCC(C)(C)CC(=O)O)CC(=O)O [M16ββ, 3,3,14,14-tetramethylhexadecane-1,16-dioic acid]
- time into treatment at which hypolipidemic effect was observed [1]: less than 1 month
- Plasma LDL-C ([1]; 3-5 months): remained unaffected
- decrease in plasma triglycerides (mean) ([1]; 3-5 months): 55%
- increase in HDL-C ([1]; 3-5 months): 13%
- plasma fibrinogen ([1]; 3-5 months): decrease
- tolerability ([1]; 3-5 months): well tolerated in all dosages
- drug-related changes in safety clinical (body weight, blood pressure, pulse, ECG) and laboratory (hematology, blood chemistry, urinary analysis) parameters [2]: no drug-related changes were detected
- hypolipidemic efficacy ([3]; at daily doses below 200 mg): substantial hypolipidemic efficacy
- HOMA (homeostatic model assessment) [3, 4]: decrease
- LDL-C [3, 4]: no change
- VLDL-C [3, 4]: robust decrease
- glucose uptake [3, 4]: increased
- plasma insulin clearance [3, 4]: increase
- plasma insulin levels [3, 4]: decrease
- sensitization to insulin [3, 4]: increased sensitization to insulin
- tolerability [3, 4]: well tolerated in all dosages
